The target of assay [1] is T1, Methionine aminopeptidase (Escherichia coli K-12, UniProt P0AE18).
T1 sequence (P0AE18 whole entry): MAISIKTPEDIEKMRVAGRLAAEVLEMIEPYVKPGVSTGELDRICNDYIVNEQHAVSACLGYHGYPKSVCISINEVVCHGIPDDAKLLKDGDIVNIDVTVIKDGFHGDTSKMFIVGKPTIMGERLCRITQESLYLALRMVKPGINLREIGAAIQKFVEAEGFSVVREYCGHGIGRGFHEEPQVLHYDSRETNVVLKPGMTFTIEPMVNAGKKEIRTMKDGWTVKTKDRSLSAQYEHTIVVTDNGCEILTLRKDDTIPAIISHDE
Kind of assay: Inhibitory activity against Co(II) form of Escherichia coli MetAP.

In assay [2] the target is T1, Methionine aminopeptidase. Kind of assay: Inhibitory activity against Mn(II) form of Escherichia coli MetAP.
Assay [3] addresses T1, Methionine aminopeptidase. In words: Inhibitory activity against Ni(II) form of Escherichia coli MetAP.
In assay [4] the target is T1, Methionine aminopeptidase. Kind of assay: Inhibitory activity against Fe(II) form of Escherichia coli MetAP.

As to `CCOc1ccccc1-c1ccc(C(=O)O)o1`, the IC50 in assay [1] is 147 µM; in assay [2], 1.13 µM; in assay [3] it was above 200 µM; in assay [4] it was above 200 µM.

Take `C=CCCOc1ccccc1-c1ccc(C(=O)O)o1`: the IC50 in assay [1] is 93.5 µM; in assay [2], 3.65 µM; in assay [3], 113 µM; in assay [4], 111 µM.

As to `O=C(O)c1ccc(-c2cccc(Cl)c2)o1`, the IC50 in assay [1] was 199 µM; in assay [2] it was 11.7 µM; in assay [3], above 200 µM; in assay [4], above 200 µM.

Turning to `O=C(O)c1ccc(-c2ccc(Cl)cc2)o1`, the IC50 in assay [1] was 180 µM; in assay [2], 12.1 µM; in assay [3], above 200 µM; in assay [4], above 200 µM.

On to `O=C(O)c1ccc(Cc2ccccc2Cl)o1`, for which the IC50 in assay [1] turned out to be 158 µM; in assay [2], 1.22 µM; in assay [3] it was 191 µM; in assay [4] it was 199 µM.

Regarding `O=C(O)c1ccc(-c2ccccc2C(=O)O)o1`, the IC50 in assay [1] is above 200 µM; in assay [2], 23.5 µM; in assay [3], above 200 µM; in assay [4] it was above 200 µM.

With `O=C(O)c1ccc(-c2ccccc2CO)o1`, the IC50 was 189 µM in assay [1], 10 µM in assay [2], 190 µM in assay [3] and above 200 µM in assay [4].

As for `O=C(O)c1ccc(-c2cc([N+](=O)[O-])ccc2F)o1`, the IC50 in assay [1] is 157 µM; in assay [2] it was 14.9 µM; in assay [3], 193 µM; in assay [4] it was 199 µM.

Consider `O=C(O)c1ccc(-c2ccccc2CF)o1`, for which the IC50 in assay [1] is 55.4 µM; in assay [2] it was 0.893 µM; in assay [3], 68 µM; in assay [4] it was 85.2 µM.

As to `N#CCc1ccc(-c2ccccc2Cl)o1`, the IC50 in assay [1] was 57.3 µM; in assay [2], 47.6 µM; in assay [3], 56.3 µM; in assay [4] it was 97.7 µM.

As to `OCc1ccc(-c2ccccc2Cl)o1`, the IC50 is 84.2 µM in assay [1], 28.1 µM in assay [2], 55 µM in assay [3] and above 200 µM in assay [4].

Take `O=C(NO)c1ccc(-c2ccccc2Cl)o1`: the IC50 in assay [1] came to 4.61 µM; in assay [2], 0.469 µM; in assay [3] it was 5.9 µM; in assay [4], 0.793 µM.

For the molecule `Cc1cccc(-c2ccc(C(=O)O)o2)c1Cl`, the IC50 was 187 µM in assay [1], 1.71 µM in assay [2], 188 µM in assay [3] and 196 µM in assay [4].

For `O=C(O)c1ccc(-c2ccccc2C(F)(F)F)o1`, the IC50 in assay [1] was 101 µM; in assay [2], 0.29 µM; in assay [3], 165 µM; in assay [4], 158 µM.

In the case of `O=C(O)c1ccc(-c2ccccc2)o1`, the IC50 is 188 µM in assay [1], 16.3 µM in assay [2], 195 µM in assay [3] and above 200 µM in assay [4].

Turning to `COCCOc1ccccc1-c1ccc(C(=O)O)o1`, the IC50 in assay [1] was determined as 103 µM; in assay [2], 9.45 µM; in assay [3] it was 163 µM; in assay [4], 169 µM.

Consider `C#CCOc1ccccc1-c1ccc(C(=O)O)o1`, for which the IC50 worked out at 98.9 µM in assay [1], 4.71 µM in assay [2], 171 µM in assay [3] and 193 µM in assay [4].

With `COC(=O)c1ccc(-c2ccccc2Cl)o1`, the IC50 in assay [1] was above 200 µM; in assay [2], 166 µM; in assay [3], above 200 µM; in assay [4], above 200 µM.

In the case of `NNC(=O)c1ccc(-c2ccccc2Cl)o1`, the values for the IC50 in assay [1], in assay [3] and in assay [4] were 77.1 µM, 5.78 µM and 58 µM, respectively.

Consider `CONC(=O)c1ccc(-c2ccccc2Cl)o1`, for which the IC50 is 57.5 µM in assay [1], 40 µM in assay [2], 51.2 µM in assay [3] and 178 µM in assay [4].

In the case of `COc1ccc([N+](=O)[O-])cc1-c1ccc(C(=O)O)o1`, the IC50 in assay [1] is 24.1 µM; in assay [2], 0.642 µM; in assay [3], 34.5 µM; in assay [4] it was 36.2 µM.

Turning to `O=Cc1ccccc1-c1ccc(C(=O)O)o1`, the IC50 is 82.6 µM in assay [1], 7.17 µM in assay [2], 67.5 µM in assay [3] and 69.2 µM in assay [4].

In the case of `O=C(O)c1ccc(-c2ccccc2O)o1`, the IC50 worked out at 127 µM in assay [1], 6.92 µM in assay [2], 153 µM in assay [3] and 190 µM in assay [4].

For `O=C(NO)c1ccc(Cc2ccccc2Cl)o1`, the IC50 worked out at 119 µM in assay [1], 9.84 µM in assay [2], 107 µM in assay [3] and 122 µM in assay [4].

In the case of `Nc1ccccc1-c1ccc(C(=O)O)o1`, the IC50 in assay [1] came out at 56.6 µM; in assay [2] it was 12.5 µM; in assay [3], 94.5 µM; in assay [4] it was 95.8 µM.

Regarding `NC(=O)c1ccc(-c2ccccc2Cl)o1`, the IC50 in assay [1] was 71.4 µM; in assay [2], 15.9 µM; in assay [3], 137 µM; in assay [4], above 200 µM.

Take `O=C(O)c1ccc(Cc2ccc(Cl)cc2)o1`: the IC50 came out at 90.5 µM in assay [1], 44.6 µM in assay [2], 89.8 µM in assay [3] and 138 µM in assay [4].

As for `O=C(O)c1ccc(-c2cc([N+](=O)[O-])ccc2Cl)o1`, the IC50 in assay [1] amounted to 44.3 µM; in assay [2] it was 1.32 µM; in assay [3], 38.4 µM; in assay [4], 31.1 µM.

Take `Cc1cc([N+](=O)[O-])ccc1-c1ccc(C(=O)O)o1`: the IC50 was found to be 59.5 µM in assay [1], 1.11 µM in assay [2], 28.5 µM in assay [3] and 150 µM in assay [4].

As for `O=C(O)Cc1ccc(Cc2ccccc2Cl)o1`, the IC50 was 77.3 µM in assay [1], 0.784 µM in assay [2], 117 µM in assay [3] and 177 µM in assay [4].

Take `O=C(O)c1ccc(Cc2ccccc2)o1`: the IC50 in assay [1] is 42.5 µM; in assay [2], 33.5 µM; in assay [3] it was 67.5 µM; in assay [4], 33.7 µM.

For the molecule `O=C(O)c1ccc(-c2ccccc2F)o1`, the IC50 in assay [1] was above 200 µM; in assay [2] it was 13.6 µM; in assay [3] it was above 200 µM; in assay [4], above 200 µM.

Regarding `COC(=O)c1ccccc1-c1ccc(C(=O)O)o1`, the IC50 in assay [1] is 160 µM; in assay [2], 3.47 µM; in assay [3], 194 µM; in assay [4], above 200 µM.

In the case of `O=C(O)c1ccc(-c2ccccc2[N+](=O)[O-])o1`, the IC50 in assay [1] came to 120 µM; in assay [2], 1.08 µM; in assay [3], 175 µM; in assay [4] it was 178 µM.

Values taken from ChEMBL document CHEMBL1141959, “Metalloform-selective inhibition: synthesis and structure-activity analysis of Mn(II)-form-selective inhibitors of Escherichia coli methionine aminopeptidase” (Bioorg Med Chem Lett, 2005).
